Measured values as given in ChEMBL document CHEMBL1135085, “Potent P1' biphenylmethyl substituted aggrecanase inhibitors” (Bioorg Med Chem Lett, 2002).

Assays:
[1] = Inhibitory activity against aggrecanase was determined
Interstitial collagenase = target: T1, Interstitial collagenase (Homo sapiens, UniProt P03956); assay: Binding affinity for interstitial collagenase (MMP-1)
T1 sequence (P03956 whole entry): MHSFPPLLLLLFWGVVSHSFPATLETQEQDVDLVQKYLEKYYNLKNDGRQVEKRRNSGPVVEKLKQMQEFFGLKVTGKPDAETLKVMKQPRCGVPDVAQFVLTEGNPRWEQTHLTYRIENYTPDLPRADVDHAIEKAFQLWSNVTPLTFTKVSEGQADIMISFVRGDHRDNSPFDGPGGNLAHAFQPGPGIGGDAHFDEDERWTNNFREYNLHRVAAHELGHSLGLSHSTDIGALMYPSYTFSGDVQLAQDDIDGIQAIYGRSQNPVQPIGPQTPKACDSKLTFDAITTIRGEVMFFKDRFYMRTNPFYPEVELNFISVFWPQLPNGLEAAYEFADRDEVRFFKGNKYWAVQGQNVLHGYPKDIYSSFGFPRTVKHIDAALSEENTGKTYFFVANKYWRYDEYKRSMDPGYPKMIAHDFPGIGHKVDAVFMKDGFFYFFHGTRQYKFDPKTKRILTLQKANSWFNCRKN

[2] = target: 72 kDa type IV collagenase (Homo sapiens, UniProt P08253); assay: Binding affinity for human gelatinase A (MMP-2)
[3] = target: Matrix metalloproteinase-9 (Homo sapiens, UniProt P14780); assay: Binding affinity for human gelatinase B (MMP-9)
Sequence of Matrix metalloproteinase-9 (P14780 whole entry): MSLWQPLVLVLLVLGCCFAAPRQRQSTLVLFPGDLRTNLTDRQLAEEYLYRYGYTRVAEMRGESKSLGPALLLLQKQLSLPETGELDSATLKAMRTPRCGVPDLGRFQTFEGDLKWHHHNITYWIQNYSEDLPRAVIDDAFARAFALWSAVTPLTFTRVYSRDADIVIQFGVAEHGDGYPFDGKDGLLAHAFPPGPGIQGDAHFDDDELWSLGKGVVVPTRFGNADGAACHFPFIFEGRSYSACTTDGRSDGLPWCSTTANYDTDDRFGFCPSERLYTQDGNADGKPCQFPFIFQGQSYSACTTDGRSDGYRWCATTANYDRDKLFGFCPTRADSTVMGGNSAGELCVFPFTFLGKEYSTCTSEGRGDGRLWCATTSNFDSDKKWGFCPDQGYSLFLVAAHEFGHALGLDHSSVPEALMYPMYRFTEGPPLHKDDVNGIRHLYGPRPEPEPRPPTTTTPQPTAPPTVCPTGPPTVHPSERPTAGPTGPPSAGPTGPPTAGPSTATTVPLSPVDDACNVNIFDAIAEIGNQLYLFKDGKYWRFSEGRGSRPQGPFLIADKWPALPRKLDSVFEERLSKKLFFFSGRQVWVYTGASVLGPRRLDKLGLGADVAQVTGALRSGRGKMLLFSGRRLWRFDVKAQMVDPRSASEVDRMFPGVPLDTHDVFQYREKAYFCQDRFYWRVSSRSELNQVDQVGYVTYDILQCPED

Sequence of 72 kDa type IV collagenase (P08253 whole entry): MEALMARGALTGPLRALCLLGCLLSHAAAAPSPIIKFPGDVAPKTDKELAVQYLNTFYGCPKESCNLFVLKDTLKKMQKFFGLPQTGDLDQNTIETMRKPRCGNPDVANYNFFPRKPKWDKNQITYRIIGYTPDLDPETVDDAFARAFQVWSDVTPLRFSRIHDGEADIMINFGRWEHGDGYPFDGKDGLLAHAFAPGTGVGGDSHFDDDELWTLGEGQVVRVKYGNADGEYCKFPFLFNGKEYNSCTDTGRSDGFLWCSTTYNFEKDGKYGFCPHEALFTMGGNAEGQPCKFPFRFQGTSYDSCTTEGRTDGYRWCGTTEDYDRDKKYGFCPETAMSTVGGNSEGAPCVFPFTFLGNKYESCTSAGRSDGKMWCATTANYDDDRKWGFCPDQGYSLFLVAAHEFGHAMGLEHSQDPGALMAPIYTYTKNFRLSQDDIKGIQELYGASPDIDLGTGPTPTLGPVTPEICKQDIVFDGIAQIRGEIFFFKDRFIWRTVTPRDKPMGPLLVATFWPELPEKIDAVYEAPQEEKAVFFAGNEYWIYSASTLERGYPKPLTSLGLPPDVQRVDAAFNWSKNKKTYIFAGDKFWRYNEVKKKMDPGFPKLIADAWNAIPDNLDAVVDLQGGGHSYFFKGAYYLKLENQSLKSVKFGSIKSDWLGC

| Structure (SMILES) | IC50 [1] [nM] | Ki (Interstitial collagenase) [nM] | Ki [2] [nM] | Ki [3] [nM] |
| --- | --- | --- | --- | --- |
| CS(=O)(=O)Nc1cccc(-c2ccc(C[C@H](CC(=O)NO)C(=O)N[C@H]3c4ccccc4C[C@H]3O)cc2)c1 | 1.5 | – | – | – |
| Cc1ccccc1-c1ccc(C[C@H](CC(=O)NO)C(=O)N[C@H]2c3ccccc3C[C@H]2O)cc1 | 11.6 | 4110 | < 2.8 | 4.2 |
| COc1ccccc1-c1ccc(C[C@H](CC(=O)NO)C(=O)N[C@H]2c3ccccc3C[C@H]2O)cc1 | 3.4 | – | – | – |
| O=C(C[C@@H](Cc1ccc(-c2ccc3c(c2)OCO3)cc1)C(=O)N[C@H]1c2ccccc2C[C@H]1O)NO | 1.5 | 12800 | 43 | 309 |
| CC(C)c1cccc(-c2ccc(C[C@H](CC(=O)NO)C(=O)N[C@H]3c4ccccc4C[C@H]3O)cc2)c1 | 216 | – | – | – |
| O=C(C[C@@H](Cc1ccc(-c2cccc(F)c2)cc1)C(=O)N[C@H]1c2ccccc2C[C@H]1O)NO | 2 | – | – | – |
| O=C(C[C@@H](Cc1ccc(-c2ccccc2Cl)cc1)C(=O)N[C@H]1c2ccccc2C[C@H]1O)NO | 32 | > 5000 | 27 | 150 |
| O=C(C[C@@H](Cc1cccc(O)c1)C(=O)N[C@H]1c2ccccc2C[C@H]1O)NO | 64 | – | – | – |
| O=C(C[C@@H](Cc1ccc(-c2ccccc2CO)cc1)C(=O)N[C@H]1c2ccccc2C[C@H]1O)NO | 144 | > 5000 | 500 | > 2000 |

The remaining molecules from weak to strong by IC50 [1], led by results:

| IC50 [1] [nM] | Ki (Interstitial collagenase) [nM] | Ki [2] [nM] | Ki [3] [nM] | Structure (SMILES) |
| --- | --- | --- | --- | --- |
| 239 | > 5000 | 1130 | 277 | O=C(C[C@@H](Cc1ccc(-c2ccccc2-c2nn[nH]n2)cc1)C(=O)N[C@H]1c2ccccc2C[C@H]1O)NO |
| 11.5 | > 5000 | 39 | 1080 | Cc1cccc(-c2ccc(C[C@H](CC(=O)NO)C(=O)N[C@H]3c4ccccc4C[C@H]3O)cc2)c1 |
| 9.8 | > 5000 | < 1 | 5.4 | O=C(C[C@@H](Cc1ccc(-c2ccccc2)cc1)C(=O)N[C@H]1c2ccccc2C[C@H]1O)NO |
| 5.5 | – | – | – | O=C(C[C@@H](Cc1ccc(-c2cccc([N+](=O)[O-])c2)cc1)C(=O)N[C@H]1c2ccccc2C[C@H]1O)NO |
| 3.7 | > 5000 | < 2.8 | 2.8 | COc1cccc(-c2ccc(C[C@H](CC(=O)NO)C(=O)N[C@H]3c4ccccc4C[C@H]3O)cc2)c1 |
